{
  "source": "patent US20070225363A1",
  "about": "“Methods and Agents for Inhibiting Dynamin-Dependent Endocytosis” (the University of Newcastle Research Associates Ltd., priority 2003, published 2007)",
  "key": {"dynamin II": {"target": "T1, dynamin II (Rattus norvegicus, UniProt P39052)", "T1 construct": "made in house; host or cells: insect cells", "T1 sequence (P39052 1-870)": "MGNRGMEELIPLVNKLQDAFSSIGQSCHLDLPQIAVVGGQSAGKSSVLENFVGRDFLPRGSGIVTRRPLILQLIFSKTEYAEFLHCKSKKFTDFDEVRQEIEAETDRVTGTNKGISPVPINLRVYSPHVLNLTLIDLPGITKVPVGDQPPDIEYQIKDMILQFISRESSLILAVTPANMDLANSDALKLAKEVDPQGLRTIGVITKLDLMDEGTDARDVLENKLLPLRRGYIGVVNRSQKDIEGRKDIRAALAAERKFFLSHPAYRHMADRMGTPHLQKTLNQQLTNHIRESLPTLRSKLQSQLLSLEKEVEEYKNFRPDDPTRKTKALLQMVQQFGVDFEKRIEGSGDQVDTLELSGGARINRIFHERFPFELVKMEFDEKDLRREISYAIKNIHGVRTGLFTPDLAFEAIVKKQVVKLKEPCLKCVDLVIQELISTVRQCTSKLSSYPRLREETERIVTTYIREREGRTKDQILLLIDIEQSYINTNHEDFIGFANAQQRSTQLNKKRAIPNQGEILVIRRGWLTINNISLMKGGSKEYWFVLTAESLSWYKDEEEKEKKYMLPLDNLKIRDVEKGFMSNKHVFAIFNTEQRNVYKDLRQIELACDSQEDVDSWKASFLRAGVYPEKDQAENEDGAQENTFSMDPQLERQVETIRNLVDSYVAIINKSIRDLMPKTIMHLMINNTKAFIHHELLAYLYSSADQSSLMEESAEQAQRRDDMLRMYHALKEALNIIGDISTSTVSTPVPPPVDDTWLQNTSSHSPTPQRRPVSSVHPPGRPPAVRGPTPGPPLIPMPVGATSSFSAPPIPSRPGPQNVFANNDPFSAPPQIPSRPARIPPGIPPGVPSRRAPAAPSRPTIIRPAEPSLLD", "experiment": "Dynamin II GTPase assay ([γ-32P]GTP hydrolysis)", "format": "biochemical", "settings": "GTPase activity, FIG. 1e", "procedure": "The plasmid for GST-Amph2-SH3 (muscle Amph2) (Butler et al., 1997) was provided by Pieto DeCamilli, Yale, Connecticut, USA, in pGEX2T vectors. The plasmid was grown in E. coli and the GST-Amph2-SH3 fusion protein was purified on glutathione (GSH)-Sepharose by elution with 10 mM reduced GSH in 20 mM Tris-HCl, pH 7.5, dialysed against the same buffer without GSH and stored at 4° C. Dynamin was purified from sheep brain by extraction from the peripheral membrane fraction of whole brain (Robinson et al., 1993) and affinity purification on GST-Amph2-SH3-sepharose as previously described (Marks and McMahon., 1998), yielding 8 mg protein from 250 g sheep brain. Recombinant dynamin II was expressed in insect cells and was a gift from Dr Sandra Schmid (Scripps, San Diego, Calif.). Recombinant dynamin I lacking the PH domain (dynamin PH, provided by Robin Scaife) was expressed in insect cells using baculoviral infection (Salim et al., 1996).\nDynamin GTPase activity was determined by hydrolysis of [ ? -^32P]GTP by a method modified from that described previously (Robinson et al., 1993). […] Dynamin activity was measured as either basal or phospholipid-stimulated with the addition of 5 μg/ml L-phosphatidylserine. […] After centrifuging for 5 min (13,000 rpm at room temperature), 200 μl of each supernatant was counted in a -counter for the release of ^32Pi from [ ? -^32P]-GTP."}, "Arf2": {"system": "Arf2", "experiment": "[α-32P]-GTP binding to small G protein Arf2", "settings": "data not shown", "procedure": "Competition of these drugs with GTP for the active site of 4 small G proteins (Rab3A, Ras, Arf2, RalA) was also tested."}},
  "data": [
    {"smiles": "N#C/C(=C\\c1ccc(O)c(O)c1)C(=O)NCCCNC(=O)/C(C#N)=C/c1ccc(O)c(O)c1", "note": "[bis-tyrphostin]", "values": [
      {"measurement": "IC50", "setting": "dynamin II", "result": 500, "unit": "nM"},
      {"measurement": "effect on [α-32P]-GTP binding to Arf2", "setting": "Arf2", "result": "neither drug affected"}
    ]}
  ]
}
